16 compounds from PubChem BioAssay (NCI) can be followed below.

Structures are written as SMILES.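 Cultured in 96-well plates, cells were exposed to test compound for 48 hours across five concentrations. GI50 = concentration required for 50% inhibition of growth. TGI is the concentration that stops growth completely.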

For the first experiment, the system named is MALME-3M melanoma. The experiment is described as follows: NCI-60 cell line screen, 48 h.
As for `O=C(Cl)C1=C(c2ccccc2)C1c1ccccc1` (stereo unspecified), the TGI is over 100 µM.

For the compound `O=C(/C=C/c1cccc(O)c1)c1cccc(-n2cc(-c3ccc4ccccc4c3)[nH]c2=O)c1`, the GI50 is 2.08 µM and the TGI was 6.37 µM.

Regarding `COc1cccc2c(=O)c3c(sc12)c(NCCCNCCO)nc1ccccc13`, the GI50 was 1.64 µM and the TGI turned out to be 3.15 µM.

With `Clc1ccc2c(c1)N(c1ncnc3ccc(-c4cnc5[nH]ncc5c4)cc13)CC2`, the GI50 is 1.12 µM and the TGI is over 100 µM.

Regarding `COc1ccc(-c2cnoc2-c2cc(OC)c3c(c2)OCCO3)cc1`, the GI50 is 39.8 µM and the TGI was over 100 µM.

As for `COc1c(O)c(OC)c2oc(-c3ccc(O)cc3)c(OC)c(=O)c2c1O`, the TGI was over 100 µM.

With `CC1(C)CC(=O)C(CC2C(=O)c3ccccc3C2=O)C(=O)C1`, the TGI is over 100 µM.

Turning to `CCOC(=O)N1CCN(CCCCCOc2ccccc2C2CCCCC2)CC1`, the GI50 is 4.91 µM and the TGI worked out at 19.2 µM.

Regarding `CC(C)(C)NCC(COc1ccc([N+](=O)[O-])cc1)OP(c1ccccc1)c1ccccc1` (stereo unspecified), the TGI was determined as 67 µM.

With `CCCCCCCCCCCCCC[n+]1cccc(C(N)=O)c1`, the GI50 was 1.75 µM and the TGI stood at 4.21 µM.

Take `COc1cc(C2c3cc4c(cc3[C@@H](Nc3ccc5c(c3)OCCO5)C3COC(=O)[C@H]23)OCO4)cc(OC)c1O` (stereo partly specified): the TGI was 26.4 µM.

Take `Cn1c(=O)nc2n(-c3ccc(Cl)c(C(F)(F)F)c3)c3ccccc3nc-2c1=O`: the TGI was found to be 34.7 µM.

In the case of `Cc1nc(-c2cccnc2)sc1C(=O)/C=C/c1cccc([N+](=O)[O-])c1`, the TGI was over 100 µM.

Another experiment deals with SW-620 colon. The experiment is described as follows: NCI-60 cell line screen, 48 h.
In the case of `O=C(Cl)C1=C(c2ccccc2)C1c1ccccc1` (stereo unspecified), the TGI was over 100 µM.

In the case of `O=C(/C=C/c1cccc(O)c1)c1cccc(-n2cc(-c3ccc4ccccc4c3)[nH]c2=O)c1`, the GI50 was 0.223 µM and the TGI amounted to 0.605 µM.

Compound `Cc1cc(C)n(C2=NS(=O)(=O)c3ccccc3N2C)n1` came in with a TGI of over 100 µM.

As for `COc1cccc2c(=O)c3c(sc12)c(NCCCNCCO)nc1ccccc13`, the GI50 is 1.38 µM and the TGI worked out at 2.9 µM.

For the compound `CSc1ccc(N(C)c2nc(C)nc3c2CCC3)cc1`, the GI50 is under 0.01 µM and the TGI is over 100 µM.

For the compound `COc1ccc(-c2cnoc2-c2cc(OC)c3c(c2)OCCO3)cc1`, the GI50 was 0.0302 µM and the TGI is over 100 µM.

In turn, `COc1c(O)c(OC)c2oc(-c3ccc(O)cc3)c(OC)c(=O)c2c1O` had a TGI of over 100 µM.

The compound `CC1(C)CC(=O)C(CC2C(=O)c3ccccc3C2=O)C(=O)C1` came in with a TGI of over 100 µM.

For `CCOC(=O)N1CCN(CCCCCOc2ccccc2C2CCCCC2)CC1`, the GI50 is 3.08 µM and the TGI is 9.81 µM.

`CC(C)(C)NCC(COc1ccc([N+](=O)[O-])cc1)OP(c1ccccc1)c1ccccc1` (stereo unspecified) returned a TGI of over 100 µM.

Consider `CCCCCCCCCCCCCC[n+]1cccc(C(N)=O)c1`, for which the GI50 is 1.98 µM and the TGI was found to be 6.72 µM.

As to `O=C(NCCN1CCNCC1)c1ccc(Nc2nc3ccccc3c3occc23)cc1`, the GI50 is 3.6 µM and the TGI was 17.4 µM.

In the case of `COc1cc(C2c3cc4c(cc3[C@@H](Nc3ccc5c(c3)OCCO5)C3COC(=O)[C@H]23)OCO4)cc(OC)c1O` (stereo partly specified), the TGI is over 79.1 µM.

Compound `Cn1c(=O)nc2n(-c3ccc(Cl)c(C(F)(F)F)c3)c3ccccc3nc-2c1=O` returned a TGI of 62 µM.

On to `Cc1nc(-c2cccnc2)sc1C(=O)/C=C/c1cccc([N+](=O)[O-])c1`, for which the TGI is over 100 µM.

The subject of a further experiment is HS 578T breast. The experiment is described as follows: NCI-60 cell line screen, 48 h.
On to `O=C(Cl)C1=C(c2ccccc2)C1c1ccccc1` (stereo unspecified), for which the TGI is over 100 µM.

Take `O=C(/C=C/c1cccc(O)c1)c1cccc(-n2cc(-c3ccc4ccccc4c3)[nH]c2=O)c1`: the GI50 was 2.01 µM and the TGI amounted to 5.9 µM.

For `Cc1cc(C)n(C2=NS(=O)(=O)c3ccccc3N2C)n1`, the TGI was over 100 µM.

In the case of `COc1cccc2c(=O)c3c(sc12)c(NCCCNCCO)nc1ccccc13`, the GI50 is 1.65 µM and the TGI is 4.07 µM.

As for `CSc1ccc(N(C)c2nc(C)nc3c2CCC3)cc1`, the GI50 was under 0.01 µM and the TGI is over 100 µM.

`Clc1ccc2c(c1)N(c1ncnc3ccc(-c4cnc5[nH]ncc5c4)cc13)CC2`: the GI50 was 0.162 µM and the TGI worked out at 0.651 µM.

Consider `COc1ccc(-c2cnoc2-c2cc(OC)c3c(c2)OCCO3)cc1`, for which the GI50 is 0.0283 µM and the TGI was 11.7 µM.

On to `COc1c(O)c(OC)c2oc(-c3ccc(O)cc3)c(OC)c(=O)c2c1O`, for which the TGI amounted to 57 µM.

Take `CCOC(=O)N1CCN(CCCCCOc2ccccc2C2CCCCC2)CC1`: the GI50 is 12.8 µM and the TGI worked out at 34.8 µM.

For `CCCCCCCCCCCCCC[n+]1cccc(C(N)=O)c1`, the GI50 was 2.64 µM and the TGI is 10.3 µM.

`O=C(NCCN1CCNCC1)c1ccc(Nc2nc3ccccc3c3occc23)cc1`: the GI50 is 14.3 µM and the TGI came out at 38.4 µM.

For the next experiment, the system named is UACC-62 melanoma. The experiment is described as follows: NCI-60 cell line screen, 48 h.
`O=C(Cl)C1=C(c2ccccc2)C1c1ccccc1` (stereo unspecified) showed a TGI of over 100 µM.

For `O=C(/C=C/c1cccc(O)c1)c1cccc(-n2cc(-c3ccc4ccccc4c3)[nH]c2=O)c1`, the GI50 was 1.8 µM and the TGI was 4.92 µM.

Turning to `Cc1cc(C)n(C2=NS(=O)(=O)c3ccccc3N2C)n1`, the TGI was over 100 µM.

Take `COc1cccc2c(=O)c3c(sc12)c(NCCCNCCO)nc1ccccc13`: the GI50 is 1.6 µM and the TGI came out at 3.03 µM.

Turning to `CSc1ccc(N(C)c2nc(C)nc3c2CCC3)cc1`, the GI50 is under 0.01 µM and the TGI is 25 µM.

With `Clc1ccc2c(c1)N(c1ncnc3ccc(-c4cnc5[nH]ncc5c4)cc13)CC2`, the GI50 was 0.46 µM and the TGI is over 100 µM.

On to `COc1ccc(-c2cnoc2-c2cc(OC)c3c(c2)OCCO3)cc1`, for which the GI50 was under 0.015 µM and the TGI was over 100 µM.

In turn, `COc1c(O)c(OC)c2oc(-c3ccc(O)cc3)c(OC)c(=O)c2c1O` showed a TGI of over 100 µM.

In the case of `CC1(C)CC(=O)C(CC2C(=O)c3ccccc3C2=O)C(=O)C1`, the TGI was over 100 µM.

On to `CCOC(=O)N1CCN(CCCCCOc2ccccc2C2CCCCC2)CC1`, for which the GI50 is 4.86 µM and the TGI was found to be 19.7 µM.

Compound `CC(C)(C)NCC(COc1ccc([N+](=O)[O-])cc1)OP(c1ccccc1)c1ccccc1` (stereo unspecified) came in with a TGI of over 100 µM.

As to `CCCCCCCCCCCCCC[n+]1cccc(C(N)=O)c1`, the GI50 is 1.15 µM and the TGI amounted to 3.48 µM.

`O=C(NCCN1CCNCC1)c1ccc(Nc2nc3ccccc3c3occc23)cc1`: the GI50 is 17.6 µM and the TGI amounted to 32 µM.

In the case of `COc1cc(C2c3cc4c(cc3[C@@H](Nc3ccc5c(c3)OCCO5)C3COC(=O)[C@H]23)OCO4)cc(OC)c1O` (stereo partly specified), the TGI worked out at 7.19 µM.

In turn, `Cn1c(=O)nc2n(-c3ccc(Cl)c(C(F)(F)F)c3)c3ccccc3nc-2c1=O` showed a TGI of 35.4 µM.

As to `Cc1nc(-c2cccnc2)sc1C(=O)/C=C/c1cccc([N+](=O)[O-])c1`, the TGI is over 100 µM.

The next experiment has as its system OVCAR-8 ovarian. The experiment is described as follows: NCI-60 cell line screen, 48 h.
Consider `O=C(Cl)C1=C(c2ccccc2)C1c1ccccc1` (stereo unspecified), for which the TGI is over 100 µM.

Turning to `O=C(/C=C/c1cccc(O)c1)c1cccc(-n2cc(-c3ccc4ccccc4c3)[nH]c2=O)c1`, the GI50 is 2.33 µM and the TGI was over 100 µM.

`Cc1cc(C)n(C2=NS(=O)(=O)c3ccccc3N2C)n1` came in with a TGI of over 100 µM.

Consider `COc1cccc2c(=O)c3c(sc12)c(NCCCNCCO)nc1ccccc13`, for which the GI50 is 1.78 µM and the TGI was 3.97 µM.

In the case of `CSc1ccc(N(C)c2nc(C)nc3c2CCC3)cc1`, the GI50 was under 0.01 µM and the TGI is over 100 µM.

Consider `Clc1ccc2c(c1)N(c1ncnc3ccc(-c4cnc5[nH]ncc5c4)cc13)CC2`, for which the GI50 was 0.966 µM and the TGI is over 100 µM.

As to `COc1ccc(-c2cnoc2-c2cc(OC)c3c(c2)OCCO3)cc1`, the GI50 is 0.0524 µM and the TGI was over 59.1 µM.

For `COc1c(O)c(OC)c2oc(-c3ccc(O)cc3)c(OC)c(=O)c2c1O`, the TGI is over 100 µM.

`CC1(C)CC(=O)C(CC2C(=O)c3ccccc3C2=O)C(=O)C1` showed a TGI of over 100 µM.

Compound `CC(C)(C)NCC(COc1ccc([N+](=O)[O-])cc1)OP(c1ccccc1)c1ccccc1` (stereo unspecified) showed a TGI of over 100 µM.

Take `CCCCCCCCCCCCCC[n+]1cccc(C(N)=O)c1`: the GI50 is 2.12 µM and the TGI was 6.22 µM.

Regarding `O=C(NCCN1CCNCC1)c1ccc(Nc2nc3ccccc3c3occc23)cc1`, the GI50 was 23.2 µM and the TGI is 75.7 µM.

Regarding `COc1cc(C2c3cc4c(cc3[C@@H](Nc3ccc5c(c3)OCCO5)C3COC(=O)[C@H]23)OCO4)cc(OC)c1O` (stereo partly specified), the TGI is 25.6 µM.

In turn, `Cn1c(=O)nc2n(-c3ccc(Cl)c(C(F)(F)F)c3)c3ccccc3nc-2c1=O` registered a TGI of 83.1 µM.

Take `Cc1nc(-c2cccnc2)sc1C(=O)/C=C/c1cccc([N+](=O)[O-])c1`: the TGI was over 100 µM.
